Experimental data: US5525599A, “7-substituted-amino-3-substituted-3-cephem-4-carboxylic acids” (Eli Lilly and Company, priority 1993, dated 1996)
Values after ≈ are worked out from the molar mass of the structure shown. Like-named read-outs stand apart in the source and are kept apart here.

Assays:
other Gram(-) bacteria = experiment: In vitro activity (MIC), agar dilution method; assay type: cell-based
K. pneumonia (X26) = experiment: In vitro activity (MIC), agar dilution method; assay type: cell-based; details: Klebsiella pneumoniae; K. pneumonia (X26), agar dilution; read-out: MIC
Experimental: (§1) Cephalosporins 9a-o were assayed against a broad array of Gram-positive and Gram-negative bacteria in Mueller-Hinton agar by the 2-fold serial dilution method, (Kirst, H. A.; J. Antibiot. 1982, 35, 1675).
(§2) Test compounds were diluted to an appropriate range of concentrations in 0.1M phosphate buffer (pH 7), incorporated into Mueller-Hinton agar (difco) supplemented with 1% Bacto-Supplement C (Difco) at 50° C. and allowed to solidify in petri dishes. Fresh overnight cultures of test bacteria were diluted to approximately 1×10^4 cells/mL aand applied in […] to the surface of the agar plates. The inoculated plates were incubated overnight at 35° C. in ambient air. MIC endpoints were recorded as the lowest antibiotic concentrations that inhibited the development of visible bacterial growth on the plates.

Enter. faecalis (2041) = experiment: In vitro activity (MIC), agar dilution method; assay type: cell-based; details: Enterococcus faecalis; Enter. faecalis (2041), agar dilution; read-out: MIC
Experimental: as §1, §2

Staph. epiderm. (222) = experiment: In vitro activity (MIC), agar dilution method; assay type: cell-based; details: Staphylococcus epidermidis; Staph. epiderm. (222), methicillin-resistant strain, agar dilution; read-out: MIC
Experimental: as §1, §2

K. pneumonia (KAE) = experiment: In vitro activity (MIC), agar dilution method; assay type: cell-based; details: Klebsiella pneumoniae
Experimental: as §1, §2

Enter. faecium (X66) = experiment: In vitro activity (MIC), agar dilution method; assay type: cell-based; details: Enterococcus faecium; Enter. faecium (X66), agar dilution; read-out: MIC
Experimental: as §1, §2

H. influenzae (C.L.) = experiment: In vitro activity (MIC), agar dilution method; assay type: cell-based; details: Haemophilus influenzae; H. influenzae (C.L.), agar dilution; read-out: MIC
Experimental: as §1, §2

H. influenzae (76) = experiment: In vitro activity (MIC), agar dilution method; assay type: cell-based; details: Haemophilus influenzae; H. influenzae (76), agar dilution; read-out: MIC
Experimental: as §1, §2

K. pneumonia (X68) = experiment: In vitro activity (MIC), agar dilution method; assay type: cell-based; details: Klebsiella pneumoniae
Experimental: as §1, §2

Staph. epiderm. (270) = experiment: In vitro activity (MIC), agar dilution method; assay type: cell-based; details: Staphylococcus epidermidis, methicillin-resistant strain
Experimental: as §1, §2

Staph. aureus (X1.1) = experiment: In vitro activity (MIC), agar dilution method; assay type: cell-based; details: Staphylococcus aureus; Staph. aureus (X1.1), agar dilution; read-out: MIC
Experimental: as §1, §2

E. coli (N10) = experiment: In vitro activity (MIC), agar dilution method; assay type: cell-based; details: Escherichia coli
Experimental: as §1, §2

Staph. aureus (X400) = experiment: In vitro activity (MIC), agar dilution method; assay type: cell-based; details: Staphylococcus aureus; Staph. aureus (X400), methicillin-resistant strain, agar dilution; read-out: MIC
Experimental: as §1, §2

E. coli (TEM) = experiment: In vitro activity (MIC), agar dilution method; assay type: cell-based; details: Escherichia coli
Experimental: as §1, §2

E. coli (EC14) = experiment: In vitro activity (MIC), agar dilution method; assay type: cell-based; details: Escherichia coli
Experimental: as §1, §2

Staph. aureus (V41) = experiment: In vitro activity (MIC), agar dilution method; assay type: cell-based; details: Staphylococcus aureus; Staph. aureus (V41), agar dilution; read-out: MIC
Experimental: as §1, §2

Strept. pyogenes (C203) = experiment: In vitro activity (MIC), agar dilution method; assay type: cell-based; details: Streptococcus pyogenes; Strept. pyogenes (C203), agar dilution; read-out: MIC
Experimental: as §1, §2

[1] = MICs against 4 strains of methicillin-resistant staphylococci; assay type: cell-based, Staphylococcus aureus and Staphylococcus epidermidis; details: Staphylococcus aureus, read-out: minimal inhibitory concentrations (MICs)
Experimental: as §1, §2

[2] = tested on: 33 strains of methicillin-resistant staphylococci; experiment: Geometric mean MICs against 33 strains of methicillin-resistant staphylococci; assay type: cell-based; details: for MIC: 33 strains, read-out: Geometric mean MIC; for MICs relative to clinically achievable concentrations for cephalosporins / change of MICs in the presence of NaCl: in words, 4% NaCl
Experimental: as §2
It is known that resistance to methicillin in staphylococci is often of the heterogeneous type and therefore not easily detected. […] (Goldstein, F. W.; Acar, J. J. Antimicrob. Chemother. […], 27, 549). […] J.; Drake T. A.; Rusnak, M. G.; Sande, M. A. J. Infect. Dis. 1984, 149, 894).

Staph. aureus (S13E) = experiment: In vitro activity (MIC), agar dilution method; assay type: cell-based; details: Staphylococcus aureus
Experimental: as §1, §2

[3] = K. pneumonia (KAE), agar dilution, read-out: MIC
[4] = K. pneumonia (X68), agar dilution, read-out: MIC
[5] = E. coli (N10), agar dilution, read-out: MIC
[6] = E. coli (EC14), agar dilution, read-out: MIC

Compound | MIC (other Gram(-) bacteria) | MIC (K. pneumonia (X26)) | MIC (Enter. faecalis (2041)) | MIC (Staph. epiderm. (222)) | MIC (K. pneumonia (KAE)) | MIC (Enter. faecium (X66)) | MIC (H. influenzae (C.L.)) | MIC (H. influenzae (76)) | MIC (K. pneumonia (X68)) | MIC (Staph. epiderm. (270)) | MIC (Staph. aureus (X1.1)) | MIC (E. coli (N10)) | MIC (Staph. aureus (X400)) | MIC (E. coli (TEM)) | MIC (E. coli (EC14)) | MIC (Staph. aureus (V41)) | MIC (Strept. pyogenes (C203)) | MIC [1] | MIC ([2]; MHA + 4% NaCl, 35° C.) | MIC ([2]; MHA) | further results
CC(=O)OCC1=C(C(=O)O)N2C(=O)[C@@H](NC(=O)Cc3csc(-c4ccccc4O)n3)[C@H]2SC1 [9a, [6R-[6A,7B(R*)]]-3-[(Acetyloxy)methyl]-7-[[[2-(2-hydroxyphenyl)-4-thiazolyl]acetyl]amino]-8-oxo-5-thia-1-azabicyclo[4.2.0]oct-2-ene-2-carboxylic Acid] | > 64 µg/mL | 2 µg/mL (≈ 4.09 µM) | 2 µg/mL (≈ 4.09 µM) | 4 µg/mL (≈ 8.17 µM) | 128 µg/mL (≈ 261 µM) | 16 µg/mL (≈ 32.7 µM) | 8 µg/mL (≈ 16.3 µM) | 0.5 µg/mL (≈ 1.02 µM) | 128 µg/mL (≈ 261 µM) | 0.125 µg/mL (≈ 0.255 µM) | 0.03 µg/mL (≈ 0.0613 µM) | 128 µg/mL (≈ 261 µM) | 2 µg/mL (≈ 4.09 µM) | 128 µg/mL (≈ 261 µM) | 128 µg/mL (≈ 261 µM) | 0.25 µg/mL (≈ 0.511 µM) | 1 µg/mL (≈ 2.04 µM) | ≤ 16 µg/mL | 2.4 µg/mL | 1.7 µg/mL (≈ 3.47 µM) | MICs relative to clinically achievable concentrations for cephalosporins [2]: remained in the range usually considered to be clinically achievable concentrations for cephalosporins; change of MICs in the presence of NaCl [2]: only slightly elevated in the presence of NaCl
CC(=O)OCC1=C(C(=O)O)N2C(=O)[C@@H](NC(=O)Cc3csc(-c4c(O)cccc4O)n3)[C@H]2SC1 [9e, [6R-[6A,7B(R*)]]-3-[(Acetyloxy)methyl]-7-[[[2-(2,6-dihydroxyphenyl)-4-thiazolyl]acetyl]amino]-8-oxo-5-thia-1-azabicyclo[4.2.0]oct-2-ene-2-carboxylic Acid] | > 64 µg/mL | 0.5 µg/mL (≈ 0.989 µM) | 4 µg/mL (≈ 7.91 µM) | 0.5 µg/mL (≈ 0.989 µM) | – | 4 µg/mL (≈ 7.91 µM) | 4 µg/mL (≈ 7.91 µM) | 4 µg/mL (≈ 7.91 µM) | – | 4 µg/mL (≈ 7.91 µM) | 8 µg/mL (≈ 15.8 µM) | – | 16 µg/mL (≈ 31.6 µM) | – | – | 16 µg/mL (≈ 31.6 µM) | 0.03 µg/mL (≈ 0.0593 µM) | ≤ 16 µg/mL | – | – | MIC (K. pneumonia (KAE); [3]): 128 µg/mL (≈ 253 µM); MIC (K. pneumonia (X68); [4]): 16 µg/mL (≈ 31.6 µM); MIC (E. coli (N10); [5]): 64 µg/mL (≈ 127 µM); MIC (Staph. aureus (S13E)): 4 µg/mL (≈ 7.91 µM); MIC (E. coli (EC14); [6]): 16 µg/mL (≈ 31.6 µM)
O=C(Cc1csc(-c2c(O)cccc2O)n1)N[C@@H]1C(=O)N2C(C(=O)O)=C(Cl)CS[C@H]12 [9f, [6R-[6A, 7B (R*)]]-3-Chloro-7-[[[2-(2,6-dihydroxyphenyl)-4-thiazolyl]acetyl]amino]-8-oxo-5-thia-1-azabicyclo[4.2.0]oct-2-ene-2-carboxylic Acid] | > 64 µg/mL | 0.5 µg/mL (≈ 1.07 µM) | 8 µg/mL (≈ 17.1 µM) | 2 µg/mL (≈ 4.27 µM) | – | 8 µg/mL (≈ 17.1 µM) | 1 µg/mL (≈ 2.14 µM) | 1 µg/mL (≈ 2.14 µM) | – | 8 µg/mL (≈ 17.1 µM) | 16 µg/mL (≈ 34.2 µM) | – | 16 µg/mL (≈ 34.2 µM) | – | – | 16 µg/mL (≈ 34.2 µM) | 0.06 µg/mL (≈ 0.128 µM) | – | – | – | MIC (K. pneumonia (KAE); [3]): 128 µg/mL (≈ 274 µM); MIC (K. pneumonia (X68); [4]): 32 µg/mL (≈ 68.4 µM); MIC (E. coli (N10); [5]): 32 µg/mL (≈ 68.4 µM); MIC (E. coli (EC14); [6]): 32 µg/mL (≈ 68.4 µM)
CC(=O)OCC1=C(C(=O)O)N2C(=O)[C@@H](NC(=O)Cc3csc(-c4ncccc4O)n3)[C@H]2SC1 [9i, [6R-[6A,7B(R*)]]-3-[(Acetyloxy)methyl]-7-[[[2-(3-hydroxy-2-pyridinyl)-4-thiazolyl]acetyl]amino]-8-oxo-5-thia-1-azabicyclo[4.2.0]oct-2-ene-2-carboxylicAcid] | > 64 µg/mL | 1 µg/mL (≈ 2.04 µM) | 8 µg/mL (≈ 16.3 µM) | 0.125 µg/mL (≈ 0.255 µM) | 128 µg/mL (≈ 261 µM) | 8 µg/mL (≈ 16.3 µM) | 4 µg/mL (≈ 8.15 µM) | 2 µg/mL (≈ 4.08 µM) | 128 µg/mL (≈ 261 µM) | 0.5 µg/mL (≈ 1.02 µM) | 0.125 µg/mL (≈ 0.255 µM) | 128 µg/mL (≈ 261 µM) | 4 µg/mL (≈ 8.15 µM) | 128 µg/mL (≈ 261 µM) | 128 µg/mL (≈ 261 µM) | 0.5 µg/mL (≈ 1.02 µM) | 0.015 µg/mL (≈ 0.0306 µM) | ≤ 16 µg/mL | 8 µg/mL | 4.8 µg/mL (≈ 9.79 µM) | MIC (Staph. aureus (S13E)): 2 µg/mL (≈ 4.08 µM); MICs relative to clinically achievable concentrations for cephalosporins [2]: remained in the range usually considered to be clinically achievable concentrations for cephalosporins; change of MICs in the presence of NaCl [2]: only slightly elevated in the presence of NaCl
